Source: patent US10308658B2, “Salt of EGFR inhibitor, crystalline form and uses thereof” (SUNSHINE LAKE PHARMA CO., LTD., priority 2015, dated 2019)

Tests used:
[1] = Pharmacokinetic assay in beagle dogs; type: in vivo; conditions: for AUC(0-inf) / AUC(0-t) / Cmax / Tmax / half-life: dog, in vivo, oral, capsule, 5 mg/kg as compound of Formula (II)
Method: The pharmacokinetic properties of the compound of Formula (II) and crystalline form I of the invention were assessed in beagle dogs: each group having 3 beagle dogs was administered by oral in a capsule form. The dosage amount of crystalline form I was converted and determined according to the compound of Formula (II) at a dosage of 5 mg/kg.

[2] = Hygroscopic test (Chinese Pharmacopoeia 2010, appendix XIX J); type: physicochemical; conditions: 25° C.±1° C., relative humidity 80%±2%, 24 h; for Hygroscopic weight gain: dimethanesulfonate monohydrate
Description: 1. Instruments: one hundred thousandth electronic balance, type: XP205DR, manufacturer: Mettler.
2. Test method deriving from Chinese Pharmacopoeia 2010, appendix XIX J: Guideline on pharmaceutical hygroscopic test. Specific method is described as follows:
1) Placing a dried glass-stoppered, weighing bottle (outer diameter: 50 mm, height: 15 mm) in a thermostatic drier with saturated aqueous ammonium chloride or ammonium sulfate solution in the bottom at the previous day of the test maintaining the temperature at 25° C.±1° C., and the glass-stoppered, weighing bottle was weighed precisely.
2) Taking and weighing an appropriate amount of the sample (m1), and placing the sample into the weighing bottle with thickness of about 1 mm.
3) Opening the weighing bottle, and placing the glass stopper with the opened weighing bottle in a constant temperature and humidity condition for 24 h.
4) Sealing the weighing bottle with glass stopper, and the weighing bottle sealed with glass stopper was weighed precisely (m2). The percentage (%) of weight gain was calculated. Percentage (%) of weight gain=(m2−m1−m0)/m1×100%
5) The hygroscopic features and definition of hygroscopic weight gain are summarized in table 3 (deriving from Chinese Pharmacopoeia 2010, appendix XIX J: Guideline on pharmaceutical hygroscopic test, test conditions: 25° C.±1° C., Relative Humidity 80%±2%).

[3] = Stability test (high temperature, high humidity, illumination); type: physicochemical
Method: (§1) The purity of the compound used in the stability test or accelerated test is measured by Aglient 1200 high performance liquid chromatography with VWD detector. The chromatographic column model is ZORBAX Extend-C18 (4.6×150 mm, […]), the detection wavelength is 250 nm, the flow rate is 1.0 mL/min, the column temperature is 40° C., and the mobile phase is 10 mM KH2PO4 (pH=7.5)-acetonitrile (v/v=55/45).
According to “Guidelines for the stability test of raw materials and preparations” (Chinese Pharmacopoeia, 2015, 4th edition, general rules 9001), the stability of crystalline form I was tested as follows:
Appropriate amount of sample was taken into the flat weighing bottle to form a thin layer of no more than 5 mm thick. […] The content of impurities was tested by HPLC.

[4] = Accelerated test (40±2° C./75%±5% RH, six months); type: physicochemical; conditions: for Impurities (total impurities, %) / Moisture (%): 40±2° C./75%±5% RH
Method: as §1
According to “Guidelines for the stability test of raw materials and preparations” (Chinese Pharmacopoeia, 2015, 4th edition, general rules 9001), the accelerated test of crystalline form I was practiced as follows:
Medicinal low density polyethylene bag (the size was 140*120*0.104 mm^3, the manufacture was Tianjin Litian Medicine Packing Material Co., Ltd, and the batch number was 121238.) was used as inner package material, and the bag was sealed by nylon cable ties; and paper tube was used as a packaging material. The packaged samples were placed in a constant temperature and humidity test chamber (40±2° C./75%±5% RH) for six months for accelerated test. Sampling at the end of 1, 2, 3 or 6 months for testing the moisture content of the sample by using karl fischer titration, the content of impurities was measured by HPLC.

[5] = biological target: EGFR (Homo sapiens, UniProt P00533); conditions: as disclosed in CN 103102344 A; cited from earlier work
[6] = oral capsule, individual data analysis

Chain of EGFR (P00533 25-1210, species assumed): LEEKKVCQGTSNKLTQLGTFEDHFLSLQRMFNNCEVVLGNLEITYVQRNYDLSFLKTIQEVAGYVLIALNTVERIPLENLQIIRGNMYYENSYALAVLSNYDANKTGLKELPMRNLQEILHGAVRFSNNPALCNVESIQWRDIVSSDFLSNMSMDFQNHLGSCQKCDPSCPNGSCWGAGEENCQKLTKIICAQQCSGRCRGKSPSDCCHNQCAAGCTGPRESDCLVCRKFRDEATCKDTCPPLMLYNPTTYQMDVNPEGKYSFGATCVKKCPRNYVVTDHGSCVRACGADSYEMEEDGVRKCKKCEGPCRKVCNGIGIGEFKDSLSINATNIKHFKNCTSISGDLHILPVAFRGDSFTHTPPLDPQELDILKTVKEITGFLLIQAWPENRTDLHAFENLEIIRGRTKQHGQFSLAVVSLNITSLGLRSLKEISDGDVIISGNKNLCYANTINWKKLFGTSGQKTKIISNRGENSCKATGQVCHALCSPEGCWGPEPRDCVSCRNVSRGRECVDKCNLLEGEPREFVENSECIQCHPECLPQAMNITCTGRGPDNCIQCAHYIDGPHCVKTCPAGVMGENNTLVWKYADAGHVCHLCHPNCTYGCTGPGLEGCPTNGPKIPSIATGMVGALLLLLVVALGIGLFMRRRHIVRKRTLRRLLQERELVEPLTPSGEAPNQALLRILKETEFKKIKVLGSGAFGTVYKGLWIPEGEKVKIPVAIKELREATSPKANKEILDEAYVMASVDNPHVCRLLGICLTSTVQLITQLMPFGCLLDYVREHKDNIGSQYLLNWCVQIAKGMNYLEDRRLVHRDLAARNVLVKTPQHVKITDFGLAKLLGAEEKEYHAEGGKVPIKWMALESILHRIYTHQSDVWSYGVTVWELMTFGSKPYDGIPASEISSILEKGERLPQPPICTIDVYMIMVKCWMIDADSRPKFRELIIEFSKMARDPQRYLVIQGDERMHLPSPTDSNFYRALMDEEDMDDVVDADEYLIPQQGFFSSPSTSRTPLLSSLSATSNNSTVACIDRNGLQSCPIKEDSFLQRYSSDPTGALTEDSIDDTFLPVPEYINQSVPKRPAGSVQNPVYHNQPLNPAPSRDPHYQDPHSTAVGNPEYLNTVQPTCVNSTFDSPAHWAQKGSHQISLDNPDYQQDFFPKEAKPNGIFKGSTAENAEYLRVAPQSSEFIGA

COc1cc2ncnc(Nc3ccc(F)c(Cl)c3)c2cc1OCCCN1C[C@@H]2OCCO[C@@H]2C1.CS(=O)(=O)O.CS(=O)(=O)O.O [Crystalline form I, 4-[(3-chloro-4-fluorophenyl)amino]-7-methoxy-6-[3-[(1R,6S)-2,5-dioxa-8-azabicyclo[4.3.0]nonan-8-yl]propoxy]quinazoline dimethanesulfonate monohydrate]
AUC(0-inf) [1]: 1470 ng·h/mL | AUC(0-t) [1]: 1450 ng·h/mL | Cmax [1]: 231 ng/mL | Tmax [1]: 1.33 h | half-life [1]: 3.65 h | Tmax time compared with compound of Formula (II) ([1]; oral capsule): earlier than compound of Formula (II) | absorption compared with compound of Formula (II) [1, 6]: faster absorption | exposure level compared with compound of Formula (II) [1, 6]: higher exposure level | Hygroscopic feature [2]: almost no hygroscopicity | Hygroscopic weight gain [2]: 0.074% | Hygroscopic weight gain ([2]; listed as crystalline form I): 0.074% | Impurities (total impurities, %) ([3]; 0 day): 0.13% | Impurities (total impurities, %) ([3]; High humidity 25° C. ± 2° C./92.5% RH, 5 days): 0.14% | Impurities (total impurities, %) ([3]; High humidity 25° C. ± 2° C./92.5% RH, 10 days): 0.16% | Impurities (total impurities, %) ([3]; High temperature 60° C. ± 2° C., 5 days): 0.12% | Impurities (total impurities, %) ([3]; High temperature 60° C. ± 2° C., 10 days): 0.14% | Impurities (total impurities, %) ([3]; Illumination 4500 ± 500 lx, 5 days): 0.13% | Impurities (total impurities, %) ([3]; Illumination 4500 ± 500 lx, 10 days): 0.13% | Impurities (total impurities, %) ([3]; Illumination 4500 ± 500 lx, 15 days): 0.14% | change of impurity ([3]; high temperature 10 days, high humidity 10 days, illumination 15 days): no obvious change | quality (stability) ([3]; high temperature, high humidity or illumination condition): stable | Impurities (total impurities, %) ([4]; 0 day): 0.18% | Moisture (%) ([4]; 0 day): 2.79% | Impurities (total impurities, %) ([4]; One month): 0.18% | Moisture (%) ([4]; One month): 2.92% | Impurities (total impurities, %) ([4]; Six months): 0.17% | Moisture (%) ([4]; Six months): 2.86% | Impurities (total impurities, %) ([4]; Three months): 0.18% | Moisture (%) ([4]; Three months): 3.09% | Impurities (total impurities, %) ([4]; Two months): 0.17% | Moisture (%) ([4]; Two months): 2.87% | quality (stability) ([4]; accelerated test condition for six months, low density polyethylene bag as inner package): stable

COc1cc2ncnc(Nc3ccc(F)c(Cl)c3)c2cc1OCCCN1C[C@@H]2OCCO[C@@H]2C1 [Compound of Formula (II), 4-[(3-chloro-4-fluorophenyl)amino]-7-methoxy-6-[3-[(1R,6S)-2,5-dioxa-8-azabicyclo [4.3.0]nonan-8-yl]propoxy]quinazoline]
AUC(0-inf) [1]: 886 ng·h/mL | AUC(0-t) [1]: 825 ng·h/mL | Cmax [1]: 125 ng/mL | Tmax [1]: 1.67 h | half-life [1]: 3.62 h | inhibition activity against EGFR [5]: high inhibition activity
